Measured values published in patent US20220062299A1, “USE OF GLUCOCORTICOID STEROIDS IN PREVENTING AND TREATING CONDITIONS OF MUSCLE WASTING, AGING AND METABOLIC DISORDER” (NORTHWESTERN UNIVERSITY, priority 2018, published 2022).

Experiments:
Assay type in all cases: in vivo, mouse
mdx mice [1] = assay: Glycemia monitoring, insulin sensitivity, glucose and pyruvate tolerance tests, adipocyte histology in mdx mice
Protocol: Glucose was measured in blood (first drop from tail venipuncture) or serum (5 μl of 1:2 dilution) with an AimStrip Plus glucometer system (Germaine Laboratories, San Antonio, Tex.) and expressed as mg/dl values. Lactate was measured in blood (second drop from tail venipuncture) or serum (5 μl of 1:2 dilution) with a Lactate Plus reader (Nova Biomedical, Waltham, Mass.) and expressed as mM values. Fasting glycemia was measured in mice after 4 hours fasting (7 AM-11 AM). Glucose, insulin and pyruvate tolerance tests were conducted after 4 hours fasting in individual cages immediately after baseline fasting glucose monitoring. Mice were injected with either 1 g/kg glucose (#D8375-1 g; Millipore Sigma, St Louis, Mo.), or 0.5 U/kg insulin (#12585014; Thermo Fisher, Waltham, Mass.), or 2.5 g/kg pyruvate (#P5280-25 g; Millipore Sigma, St Louis, Mo.) in 200 μl intraperitoneal injections, and glucose was then monitored by tail venipuncture at 10 min, 20 min, 30 min, 60 min, 120 min after injection. All glucose and pyruvate tolerance tests were conducted blinded to treatment groups.
(§1) Histology. Excised tissues (muscles, omental fat, heart) were placed in 10% formaldehyde (Cat #245-684; Fisher Scientific, Waltham, Mass.) for histologic processing. Seven μm sections from the center of paraffin-embedded muscles were stained with hematoxylin and eosin (H&E; cat #12013B, 1070C; Newcomer Supply, Middleton, Wis.) and Masson's trichrome (Cat #HT-15; Sigma-Aldrich; St. Louis, Mo.). Myofiber/adipocyte CSA quantitation was conducted on 400 myofibers/adipocytes per tissue per mouse. Imaging was performed using a Zeiss Axio Observer A1 microscope, using 10× and 20× (short-range) objectives. Brightfield pictures were acquired via Gryphax software (version 1.0.6.598; Jenoptik, Jena, Germany). Area quantitation was performed by means of ImageJ (Schneider et al., 2012). Sample processing, imaging and CSA quantitation were conducted blinded to treatment groups.

mdx mice [2] = assay: Metabolic cages (indirect calorimetry), mdx mice, 40 weeks; settings: weekly prednisone
Protocol: Metabolic cages. VO2 (ml/h/kg) and energy expenditure to body weight (kcal/h/kg) were assessed via indirect calorimetry using the TSE Automated Phenotyping System PhenoMaster (TSE system, Chesterfield, Mo.). Mice were singly housed in their home cages in an enclosed environmental chamber (part of the TSE system) with controlled temperature and light/dark cycles (12 hours each; 6 AM-6 PM). […] Measurements of CO2 production and O2 consumption occurred using the attached gas analyzer to assess energy expenditure. In addition, physical activity in three dimensions was monitored via infrared beam breaks through frames mounted on the perimeter of the metabolic cages. Enrichment items were omitted to avoid insulation from sensors and infrared light beam path obstruction. Results are expressed as 12 hour-period values (light/dark; 10 values per mouse). Metabolic cage assays were conducted blinded to treatment groups.

mdx mice [3] = assay: Morbidity, muscle mass, muscle function, plethysmography, echocardiography, mdx mice, 40 weeks; settings: weekly prednisone
Protocol: as §1
Muscle function, whole-body plethysmography, echocardiography. Forelimb grip strength was monitored using a meter (Cat #1027SM; Columbus Instruments, Columbus, Ohio) blinded to treatment groups. Animals performed ten pulls with 5 seconds rest on a flat surface between pulls. Immediately before sacrifice, in situ tetanic force from tibialis anterior muscle was measured using a Whole Mouse Test System (Cat #1300A; Aurora Scientific, Aurora, ON, Canada) with a 1N dual-action lever arm force transducer (3000-LR, Aurora Scientific, Aurora, ON, Canada) in anesthetized animals (0.8 I/min of 1.5% isoflurane in 100% O2). […] Time of contraction was assessed as time to max tetanic value within the 0.0-0.5 sec range of each tetanic contraction, while time of relaxation was assessed as time to 90% min tetanic value within the 0.5-0.8 sec range of every tetanus. […] Data was recorded for a total of 15 minutes broken into 3 consecutive 5-minute periods. […] Cardiac function was assessed by echocardiography, which was conducted under anesthesia (0.8 L/min of 1.5% vaporized isoflurane in 100% O2) on mice between 2 and 5 days before sacrifice. […]

## C[C@]12C=CC(=O)C=C1CC[C@@H]1[C@@H]2C(=O)C[C@@]2(C)[C@H]1CC[C@]2(O)C(=O)CO [prednisone, Prednisone]
Mdx mice [1]; daily prednisone
  adipocyte hypertrophy: induced adipocyte hypertrophy
  endpoint glucose and pyruvate tolerance tests: induced glucose intolerance and pyruvate intolerance
  glucose homeostasis: impaired
  insulin resistance: induced insulin resistance
Mdx mice [1]; daily prednisone, over treatment
  Glycemia: progressively increased
Mdx mice [1]; weekly prednisone
  endpoint glucose tolerance test: did not increase glucose intolerance
  insulin sensitivity: higher
Mdx mice [2]
  oxygen consumption (VO2) and energy expenditure during nocturnal activity: increased
Mdx mice [3]; mdx male mice, 40 weeks from 6 weeks of age
  morbidity: improved
Mdx mice [3]; mdx mice, 40 weeks
  muscle mass and force: increased
  performance of limb muscles, respiratory muscles, and heart: improved
